# Source: patent US12648947B2, “Heterocyclic derivatives, pharmaceutical compositions and their use in the treatment, amelioration or prevention of fibrotic disease” (TOLREMO THERAPEUTICS AG, priority 2020, dated 2026)
# Where two headings read alike, the source gives them in different places.
# How the values were obtained:
# [1] = tested on: TGF-β1 induced α-smooth muscle actin (αSMA) production by IPF diseased donor's lung fibroblast; test: Fibroblast-to-Myofibroblast Transition (FMT) assay; assay type: cell-based; conditions: for IC50: Fibroblast, 72 h, 1.25 ng/ml TGF-β1, 72 h, read-out: IC50 αSMA, Log (converted); for Potential toxicity Log [M]: concentration with >25% cell loss (DAPI nuclei); for Max. Percentage Inhibition (PIN), [%]: αSMA
# Method: Lung fibroblasts from 3 IPF donors (Pat1-3) were seeded for automated high-content/high-throughput microscopy. At day 2 cell culture medium was refreshed in the wells and fibroblast grown until day 5, at which point drug treatment was initiated.
# Drug addition was done 1 h before stimuli addition (1.25 ng/ml TGF-β1). For trigger controls wells with fibroblasts were treated with medium (unstimulated control) or 1.25 ng/ml TGF-β1 (stimulated control). For assay controls fibroblasts were treated with 1.25 ng/ml TGF-β1+0.1% DMSO (unstimulated control) or 1.25 ng/ml TGF-β1+1 μM SB525334 (positive control for inhibition). Reference compound and clinically approved drug nintedanib was added as concentration response curve (CRC) with 8-points in a semi-Log dilution starting from 10 μM.
# Wells were fixed with 4% paraformaldehyde and stained for α-smooth muscle actin (αSMA) expression using immunofluorescence and with DAPI to assess nuclei number per well. Image acquisition and high content analysis (HCA) of αSMA and DAPI was done on a high content microscope.
# (§1) Analysis of αSMA/FN1: Images were segmented and quantificatied for αSMA/FN1 immunoreactivity by an HCA algorithm, with density x area (DxA) output. Data were normalized from raw αSMA/FN1 (DxA) to percentage inhibition (PIN) values, on a plate-to-plate basis
# (§2) [formula] • μp is the average αSMA/FN1 value of the positive control (TGF-β1+1 μM SB525334) • μn is the average of αSMA/FN1 value of the vehicle control (TGF-β1+0.1% DMSO) • Xi is the compound αSMA/FN1 value
# (§3) Analysis of % Remaining cells: DAPI fluorescence applied for HCA-based quantification of the number of imaged cells, on a plate-to-plate basis.
# (§4) [formula] • μn is the average numbers of nuclei of the vehicle control (TGF-β1+0.1% DMSO) • Xi is the compound number of nuclei
# [2] = tested on: TGF-β1 induced Fibronectin 1 (FN1) production by IPF diseased donor's bronchial epithelial cells; test: Epithelial-to-Mesenchymal Transition (EMT) assay; assay type: cell-based; parameters: Δ Percentage Inhibition (PIN), [%]: concentration or dose not given beside the values; conditions: for IC50: Epithelial cell, 72 h, 5.0 ng/ml TGF-β1, 72 h, read-out: IC50 FN1, Log (converted); for Δ Percentage Inhibition (PIN), [%]: FN1
# Method: Bronchial epithelial cells (BEC) from 3 IPF donors (PatA-C) were seeded for automated high-content/high-throughput microscopy. At day 2 cell culture medium was refreshed in the wells and cells grown until day 5, at which drug treatment was initiated.
# Drug addition was done 1 h before stimuli addition (5.0 ng/ml TGF-β1). For trigger controls wells with BEC were treated with medium (unstimulated control) or 5.0 ng/ml TGF-β1 (stimulated control). For assay controls fibroblasts were treated with 5.0 ng/ml TGF-β1+0.1% DMSO (unstimulated control) or 5.0 ng/ml TGF-β1+1 μM SB525334 (positive control for inhibition). The reference compound and clinically approved drug nintedanib was added as concentration response curve (CRC) with 8-points in a semi-Log dilution staring from 10 μM. […] Wells were fixed with 4% paraformaldehyde and stained for Fibronectin (FN1) expression using immunofluorescence and with DAPI to assess nuclei number per well. Image acquisition and high content analysis (HCA) of FN1 and DAPI was done on a high content microscope.
# as §1, §2, §3, §4
# [3] = tested on: NCI-H1975 lung cancer cells; test: Fibrotic gene expression analysis by RNA sequencing; assay type: cell-based; conditions: 1 μM, 24 h vs DMSO
# Method: (§5) 250000 HCC827 (ATCC; CRL 2868) cells/well or 200000 NCI-H1975 (ATCC; CRL 5908) cells/well were seeded in 6-well dishes (Greiner Bio-One, 7657160) the day before drug treatment in RPMI medium containing 10% FCS and 2 mM L-Glutamine. […] Subsequently cells were washed 3 times with 2 ml PBS and lysed in 300 μl lysis buffer (RA1+1% TCEP [Sigma 646547]). RNA is extracted according to Macherey-Nagel NucleoSpin 8 RNA Kit protocol for vacuum (740698.5) for RNA extraction and RNA is eluted in H2O. RNA Library preparation and sequqnening was done externally. In short, RNA sequencing libraries were generated using TruSeq RNA Sample Prep Kit v2 following manufacturer's recommendations and index codes were added to attribute sequences to each sample. Samples were sequenced using an Illumnia platform, with paired-end reads. Illumina SBS technology utilizes a proprietary reversible terminator-based method that detects single bases as they are incorporated into DNA template strands. The original data obtained from the high throughput sequencing platforms were transformed to sequenced reads by base calling. Raw data are recorded in a FASTQ file which contains sequenced reads and corresponding sequencing quality information and were further processed to obtain transcripts per million values (TPM) for variable genes.
# HCC827 lung cancer cells = test: as above; assay type: cell-based; conditions: 1 μM, 24 h vs DMSO
# Method: as §5
# CBP bromodomain = molecular target: T1, CBP bromodomain (Homo sapiens, UniProt Q92793); test: CBP bromodomain binding assay (TR-FRET); conditions: 1 hour incubation at room temperature
# T1 construct: purchased Cayman chemicals 600850
# T1 sequence (Q92793 1085-1192 limits assumed): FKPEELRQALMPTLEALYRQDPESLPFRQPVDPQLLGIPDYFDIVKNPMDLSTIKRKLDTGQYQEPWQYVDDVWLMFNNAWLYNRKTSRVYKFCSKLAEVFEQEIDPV
# Method: Compounds solutions of 10 mM in DMSO were pre-diluted in DSMO to 25× stock solutions in DMSO. These were then diluted down to 4× in Assay buffer. A dilution series in Assay buffer was performed keeping the DMSO concentration stable. 5 μl compound in assay buffer was transferred into the assay plate (provided by assay kit) and the TR-FRET assay Cayman chemicals; 600850) was performed using the manufacture's instructions. After 1 hour incubation at room temperature in the darks, assay plates were read in a Tecan M1000 plate reader using the TR-FRET mode (top read; excitation 340 nm bandwidth 20 nM; emission 620 nm bandwidth 7 nM; gain optimal determined for the first well, number of flashes: 5; flash frequency 100 Hz; integration time: 500 μs, lag time: 100 μs, room temperature). The TR-FRET ratio was calculated by dividing 670 nm emission by 620 nm emission. […] Values were log transformed and non-linear regression with variable slope (4 parameters) was used to fit values to a dose-response curve to evaluate EC50 values (see table 5 below).
smiles,measurement,setting,value
COc1cncc(-c2cc(Nc3cccc(F)c3)nc([C@@H]3CC[C@H](C)N(C(C)=O)C3)n2)c1 [Compound 00004],IC50,[1]; Pat1 lung fibroblast donor,1260 nM
same,IC50,[1]; Pat2 lung fibroblast donor,2510 nM
same,IC50,[1]; Pat3 lung fibroblast donor,2000 nM
same,inhibition of TGF-β1-mediated αSMA expression,[1]; all 3 IPF donors' lung fibroblast,full concentration-dependent inhibition
same,Potential toxicity Log [M],[1]; Pat1,>−5.2 Log [M]
same,Potential toxicity Log [M],[1]; Pat2,>−5.2 Log [M]
same,Potential toxicity Log [M],[1]; Pat3,>−5.2 Log [M]
same,"Max. Percentage Inhibition (PIN), [%]",[1]; Pat1 lung fibroblast donor,90.3%
same,"Max. Percentage Inhibition (PIN), [%]",[1]; Pat2 lung fibroblast donor,127.1%
same,"Max. Percentage Inhibition (PIN), [%]",[1]; Pat3 lung fibroblast donor,105.1%
same,inhibition of TGF-β1-mediated FN1 expression,[2]; BEC from 2 IPF donors,full concentration-dependent inhibition
same,inhibition of TGF-β1-mediated FN1 expression,"[2]; BEC from one IPF donor, partial = ΔPIN <75",partial
same,modulation of the number of nuclei,"[2]; BEC, indicative of absence of potential cytotoxic side-effects",No modulation
same,IC50,[2]; PatA BEC donor,5010 nM
same,IC50,[2]; PatB BEC donor,1000 nM
same,IC50,[2]; PatC BEC donor,2000 nM
same,"Δ Percentage Inhibition (PIN), [%]",[2]; PatA BEC donor,62.5%
same,"Δ Percentage Inhibition (PIN), [%]",[2]; PatB BEC donor,84.9%
same,"Δ Percentage Inhibition (PIN), [%]",[2]; PatC BEC donor,116.3%
same,"expression of genes up-regulated during fibrotic disease (MMP, FN1, COL1A1), mRNA abundance (TPM)",[3],reduces expression of genes
same,"expression of genes up-regulated during fibrotic disease (MMP, FN1, COL1A1), mRNA abundance (TPM)",HCC827 lung cancer cells,reduces expression of genes
CC(=O)N1C[C@H](c2nc(Nc3cc(F)c4cc[nH]c4c3)cc(-c3cccnc3)n2)CC[C@@H]1C [Compound 00040],EC50,CBP bromodomain,< 200 nM
CC(=O)N1C[C@H](c2nc(Nc3ccccc3)cc(-c3cncnc3)n2)CC[C@@H]1C [Compound 00062],EC50,CBP bromodomain,200 to 1000 nM
CC(=O)N1C[C@H](c2nc(Nc3ccccc3)cc(-c3cncc4[nH]ccc34)n2)CC[C@@H]1C [Compound 00063],EC50,CBP bromodomain,< 200 nM
CC(=O)N1C[C@H](c2nc(Nc3cncc(C)c3)cc(-c3cncc4[nH]ccc34)n2)CC[C@@H]1C [Compound 00075],EC50,CBP bromodomain,< 200 nM
CC(=O)N1C[C@H](c2nc(Nc3ccncc3)cc(-c3cccnc3)n2)CC[C@@H]1C [Compound 00077],EC50,CBP bromodomain,200 to 1000 nM
"COC(=O)c1ccc2c(c1)NC(=O)/C2=C(\Nc1ccc(N(C)C(=O)CN2CCN(C)CC2)cc1)c1ccccc1 [Nintedanib, reference compound]",IC50,[1]; Pat1 lung fibroblast donor,631 nM
same,IC50,[1]; Pat2 lung fibroblast donor,398 nM
same,IC50,[1]; Pat3 lung fibroblast donor,200 nM
same,Potential toxicity Log [M],[1]; Pat1,>−5.5 Log [M]
same,Potential toxicity Log [M],[1]; Pat2,>−7.0 Log [M]
same,Potential toxicity Log [M],[1]; Pat3,>−6.0 Log [M]
same,"Max. Percentage Inhibition (PIN), [%]",[1]; Pat1 lung fibroblast donor,109.3%
same,"Max. Percentage Inhibition (PIN), [%]",[1]; Pat2 lung fibroblast donor,101%
same,"Max. Percentage Inhibition (PIN), [%]",[1]; Pat3 lung fibroblast donor,98.4%
same,IC50,[2]; PatA BEC donor,10000 nM
same,IC50,[2]; PatC BEC donor,63.1 nM
same,"Δ Percentage Inhibition (PIN), [%]",[2]; PatA BEC donor,45.9%
same,"Δ Percentage Inhibition (PIN), [%]",[2]; PatB BEC donor,81.7%
same,"Δ Percentage Inhibition (PIN), [%]",[2]; PatC BEC donor,72.1%
